According to patent publication US9487489B2, “Halogen-substituted pyrazole derivatives as pest-control agents” (BAYER CROPSCIENCE AKTIENGESELLSCHAFT, priority 2013, dated 2016):

What was measured:
[1] = logP determination by HPLC on a reversed-phase column (C18), EEC Directive 79/831 Annex V.A8; type: physicochemical; settings: HPLC on reversed-phase column (C18), acetonitrile/water with formic acid, EEC Directive 79/831 Annex V.A8
Description: (§1) ^a) Note regarding the determination of the logP values and mass detection: The determination of the given logP values was carried out in accordance with EEC Directive 79/831 Annex V.A8 by HPLC (High Performance Liquid Chromatography) on a reversed-phase column (C18). Agilent 1100 LC system; 50*4.6 Zorbax Eclipse Plus C18 1.8 micron; mobile phase A: acetonitrile (0.1% formic acid); mobile phase B: water (0.09% formic acid); linear gradient from 10% acetonitrile to 95% acetonitrile in 4.25 min, then 95% acetonitrile for a further 1.25 min; oven temperature 55° C.; flow rate: 2.0 ml/min. Mass detection is carried out via an Agilend MSD system.
as §1, with “^*)” for “^a)”

[2] = system: larvae of the mustard beetle (Phaedon cochleariae); test: Phaedon cochleariae spray test (PHAECO); type: in vivo; settings: Chinese cabbage leaf discs, after 7 days
Description: H. Phaedon cochleariae-spray Test (PHAECO)
Solvents: 78.0 parts by weight of acetone
(§2) • 1.5 parts by weight of dimethylformamide Emulsifier: alkylaryl polyglycol ether
(§3) To produce a suitable preparation of active compound, 1 part by weight of active compound is dissolved using the stated parts by weight of solvent and made up with water comprising an emulsifier concentration of 1000 ppm until the desired concentration is reached. To produce further test concentrations, the preparation is diluted with emulsifier-containing water.
After 7 days, the efficacy in % is determined. 100% means that all of the beetle larvae have been killed; 0% means that none of the beetle larvae have been killed.

[3] = system: greenhouse red spider mite (Tetranychus urticae); test: Tetranychus urticae spray test, OP-resistant (TETRUR); type: in vivo; settings: bean leaf discs, after 6 days
Description: J. Tetranychus urticae-spray Test, OP-Resistant (TETRUR)
(§4) Solvent: 78.0 parts by weight of acetone
as §2, §3
Discs of bean leaves (Phaseolus vulgaris) which are infested by all stages of the greenhouse red spider mite (Tetranychus urticae) are sprayed with an active compound preparation of the desired concentration.
After 6 days, the efficacy in % is determined. 100% means that all of the spider mites have been killed; 0% means that none of the spider mites have been killed.

[4] = system: caterpillars of the armyworm (Spodoptera frugiperda); test: Spodoptera frugiperda spray test (SPODFR); type: in vivo; settings: maize leaf discs, after 7 days
Description: I. Spodoptera frugiperda-spray Test (SPODFR)
as §4, §2, §3
Leaf discs of maize (Zea mays) are sprayed with an active compound preparation of the desired concentration and, after drying, populated with caterpillars of the armyworm (Spodoptera frugiperda).
After 7 days, the efficacy in % is determined. 100% means that all of the caterpillars have been killed; 0% means that none of the caterpillars have been killed.

[5] = system: adult cat fleas (Ctenocephalides felis); test: Ctenocephalides felis in vitro contact test with adult cat fleas (T1); settings: after 48 h
Description: T1. Ctenocephalides felis—in vitro Contact Tests with Adult Cat Fleas
For the coating of the test tubes, initially 9 mg of active compound are dissolved in 1 ml of acetone p.a. and then diluted with acetone p.a. to the desired concentration. By turning and rocking on an orbital shaker (2 h of rocking rotation at 30 rpm), 250 μl of the solution are distributed homogeneously on the internal walls and the floor of a 25 ml test tube. At 900 ppm active compound solution and 44.7 cm^2 internal surface, an area dose of 5 μg/cm^2 is achieved for homogeneous distribution.
After evaporation of the solvent, the tubes are populated with 5-10 adult cat fleas (Ctenocephalides felis), sealed with a perforated plastic lid and incubated in a horizontal position at room temperature and ambient humidity. After 48 h, the efficacy is determined. To this end, the test tubes are stood upright and the fleas are knocked to the floor of the tube. Fleas which remain motionless on the floor or move in an uncoordinated manner are considered to be dead or moribund.
An efficacy of 100% means that all fleas were dead or moribund. 0% efficacy means that none of the fleas had been damaged.

| SMILES | logP [1] | efficacy in % ([2]; application rate 100 g/ha) [%] | efficacy in % ([3]; application rate 100 g/ha) [%] | efficacy in % ([2]; application rate 500 g/ha) [%] | efficacy in % ([3]; application rate 500 g/ha) [%] | efficacy in % ([4]; application rate 100 g/ha) [%] | efficacy in % ([4]; application rate 500 g/ha) [%] | efficacy (dead or moribund fleas) ([5]; application rate 1 μg/cm^2) [%] | efficacy (dead or moribund fleas) ([5]; application rate 5 μg/cm^2) [%] |
| --- | --- | --- | --- | --- | --- | --- | --- | --- | --- |
| Cn1nc(C(F)(F)F)c(CO)c1-n1cc(-c2ccc(Cl)c(C(=O)NC3(C#N)CC3)c2)cn1 [Ic-104] | 2.13 | 100 | 100 | – | – | – | – | – | – |
| Cc1nn(-c2c(C(F)(F)F)c(C(F)(F)C(F)(F)F)nn2C)c(C)c1-c1ccc(Cl)c(C(=O)NC2CC2)c1 [Ic-9] | 4.02 | – | 90 | – | – | – | – | – | – |
| Cn1nc(C(F)(F)F)c(CO)c1-n1cc(-c2ccc(Cl)c(C(=O)NC3CC3)c2)cn1 [Ic-69] | 2.15 | – | – | 83 | 90 | – | – | – | – |
| CSC1CCC1NC(=O)c1cc(-c2cnn(-c3c(C(F)(F)F)c(C(F)(F)C(F)(F)F)nn3C)c2)ccc1Cl (stereo not shown) [Ic-119] | 4.52 | 100 | 100 | – | – | 83 | – | – | – |
| Cn1nc(C(F)(F)F)c(C(F)(F)F)c1-n1cc(-c2ccc(Cl)c(C(=O)Nc3ccccc3)c2)cn1 [Ic-135] | 4.1 | 83 | 100 | – | – | 100 | – | – | – |
| Cc1ccc(-c2cnn(-c3c(C(F)(F)F)c(C(F)(F)C(F)(F)F)nn3C)c2)cc1C(=O)Nc1ccc(F)cc1 [Ic-131] | 4.57 | 100 | 100 | – | – | 100 | – | – | – |
| Cn1nc(C(F)(F)C(F)(F)F)c(C(F)(F)F)c1-n1cc(-c2ccc(Cl)c(C(=O)NC3CCC3S(C)(=O)=O)c2)cn1 (stereo not shown) [Ic-124] | 3.47 | 100 | 100 | – | – | 100 | – | – | – |
| CCOC1C(C)C1NC(=O)c1cc(-c2cnn(-c3c(C(F)(F)F)c(C(F)(F)C(F)(F)F)nn3C)c2)ccc1Cl (stereo not shown) [Ic-183] | 4.34 | – | – | 100 | 100 | – | 100 | – | – |
| C#CC(C)NC(=O)c1cc(-c2cnn(-c3c(C(F)(F)F)c(C(F)(F)C(F)(F)F)nn3C)c2)ccc1Cl (stereo not shown) [Ic-193] | 3.97 | – | – | 100 | 100 | – | 100 | – | – |
| CC#CC(C)NC(=O)c1cc(-c2cnn(-c3c(C(F)(F)F)c(C(F)(F)C(F)(F)F)nn3C)c2)ccc1Cl (stereo not shown) [Ic-198] | 4.27 | – | – | 100 | 100 | – | 100 | – | – |
| Cn1nc(C(F)(F)C(F)(F)F)c(C(F)(F)F)c1-n1cc(-c2ccc(Cl)c(C(=O)NC3(C)CC3)c2)cn1 [Ic-200] | 4.12 | – | – | 100 | 100 | – | 100 | – | – |
| Cn1nc(C(F)(F)C(F)(F)F)c(C(F)(F)F)c1-n1cc(-c2ccc(Cl)c(C(=O)NC3CC3(Cl)Cl)c2)cn1 (stereo not shown) [Ic-184] | 4.34 | – | – | 100 | 100 | – | 100 | – | – |
| Cn1nc(C(F)(F)C(F)(F)F)c(C(F)(F)F)c1-n1cc(-c2ccc(Cl)c(C(=O)NC3(C#N)CC3)c2F)cn1 [Ic-107] | – | – | – | 100 | 100 | – | 100 | 100 | 100 |
| Cn1nc(C(F)(F)F)c(C(F)(F)F)c1-n1cc(-c2ccc(Cl)c(C(=O)NCC(F)F)c2)cn1 [Ic-170] | 3.43 | 100 | 100 | – | – | 100 | – | – | – |
| Cn1nc(C(F)(F)C(F)(F)F)c(C(F)(F)F)c1-n1cc(-c2ccc([S+](C)[O-])c(C(=O)NC3CC3)c2)cn1 (stereo not shown) [Ic-189] | 3.19 | 100 | 100 | – | – | – | – | – | – |
| Cn1nc(C(F)(F)C(F)(F)F)c(C(F)(F)F)c1-n1cc(-c2cccc(C(=O)NC3(C#N)CC3)n2)cn1 [Ic-105] | – | – | – | 100 | 90 | – | 100 | – | – |
| Cn1nc(C(F)(F)C(F)(F)F)c(C(F)(F)F)c1-n1cc(-c2ccc(Cl)c(C(=O)NC3CCC3C[S+](C)[O-])c2)cn1 (stereo not shown) [Ic-123] | 3.09 | – | 100 | – | – | – | – | – | – |
